The text below walks through data of patent publication US6908906B2, “Crystalline forms of pyrimidine nucleoside derivative” (Sankyo Company, Limited, priority 2001, dated 2005).

The series in a line: Stability test: storage in stoppered vessels at 60° C. under a nitrogen atmosphere, content by HPLC. The class given is physicochemical. Conditions: for Stability (Residual rate): based on initial content (100%). On the procedure: In the stability test, crystals B, C and D of the present invention prepared in Examples 1, 2 and 4, respectively and the amorphous powder (Amorphous A) of compound of general formula (I) described in Example 1 (1d) of the Japanese Patent No. 2569251 were used as reference. These compounds were placed in stoppered vessels separately and stored at 60° C. under a nitrogen atmosphere for 17 days, and the content of these compounds was measured on 5, 10 and 17 days after the initiation of the storage.
The content of these compounds was determined quantitatively with high performance liquid chromatography (HPLC), and the rate of the remaining compounds (%) was calculated by the content of Compound (I) determined at each sampling point based on the initial content (100%) determined immediately before the storage.

The mark [1] stands for this setting: 5 days after the initiation of storage.
[2] abbreviates: 10 days after the initiation of storage.
Setting [3] is: 17 days after the initiation of storage.

With `CCCCCCCCCCCCCCCC(=O)Nc1ccn([C@@H]2O[C@H](CO)[C@@H](O)[C@@H]2C#N)c(=O)n1` [Crystal C, 2′-cyano-2′-deoxy-N^4-palmitoyl-1-β-D-arabinofuranosylcytosine], the “Stability (Residual rate)” value under setting [1] came out at 101.0%; the “Stability (Residual rate)” value under setting [2] turned out to be 100.4%; the “Stability (Residual rate)” value under setting [3] is 100.1%; the “Stability (Residual rate)” value (17 days after the initiation of storage, listed as crystal C) was 100%.
Take `CCCCCCCCCCCCCCCC(=O)Nc1ccn([C@@H]2O[C@H](CO)[C@@H](O)[C@@H]2C#N)c(=O)n1` [Crystal D, 2′-cyano-2′-deoxy-N^4-palmitoyl-1-β-D-arabinofuranosylcytosine]: the “Stability (Residual rate)” value came to 99.9% under setting [1]; 98.3% under setting [2]; 98.4% under setting [3]; 98.4% (17 days after the initiation of storage, listed as crystal D).
As for `CCCCCCCCCCCCCCCC(=O)Nc1ccn([C@@H]2O[C@H](CO)[C@@H](O)[C@@H]2C#N)c(=O)n1` [Amorphous A, 2′-cyano-2′-deoxy-N^4-palmitoyl-1-β-D-arabinofuranosylcytosine, reference compound], the “stability (in words)” value is “extremely low”. Further, the “Stability (Residual rate)” value under setting [1] was determined as 92.7%. Moreover, the “Stability (Residual rate)” value under setting [2] stood at 78.6%. Further, the “Stability (Residual rate)” value under setting [3] came to 62.5%. Also, the “Stability (Residual rate)” value (17 days after the initiation of storage, listed as amorphous A) is given as 62.5%.
Turning to `CCCCCCCCCCCCCCCC(=O)Nc1ccn([C@@H]2O[C@H](CO)[C@@H](O)[C@@H]2C#N)c(=O)n1` [Crystal B, 2′-cyano-2′-deoxy-N^4-palmitoyl-1-β-D-arabinofuranosylcytosine], the “Stability (Residual rate)” value reads like this: under setting [1], 101.0%; under setting [2], 100.3%; under setting [3], 100.4%; (17 days after the initiation of storage, listed as crystal B) 100%.
